This is an account of results in publication PMC5452050 (ACS Omega, 2017).

Structures are written as SMILES. In brackets after ≈: the same amount, converted by molar mass.

One series deals with MV4-11 cells. As to the kind of experiment: MV4-11 cell proliferation. The class given is cell-based. The note with it: for EC50: Homo sapiens, MV4-11, 72 h, read-out: MV4-11 EC50.
Series [1] addresses T1, recombinant human FLT3 (571–993) (Homo sapiens, UniProt P36888).
T1 sequence (P36888 571-993): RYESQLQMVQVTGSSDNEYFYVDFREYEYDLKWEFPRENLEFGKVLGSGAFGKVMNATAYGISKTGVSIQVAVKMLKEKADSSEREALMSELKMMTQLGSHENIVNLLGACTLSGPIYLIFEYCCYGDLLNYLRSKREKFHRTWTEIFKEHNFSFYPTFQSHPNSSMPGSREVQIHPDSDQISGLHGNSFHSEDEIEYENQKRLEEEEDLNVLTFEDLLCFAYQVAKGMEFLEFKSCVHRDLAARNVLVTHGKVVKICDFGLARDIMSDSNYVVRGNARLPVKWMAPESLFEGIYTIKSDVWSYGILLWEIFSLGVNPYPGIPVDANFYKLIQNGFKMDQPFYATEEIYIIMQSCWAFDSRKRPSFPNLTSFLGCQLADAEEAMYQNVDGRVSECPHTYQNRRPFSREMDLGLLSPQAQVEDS
As to the kind of experiment: biochemical. In kind it is biochemical. To be noted: for IC50: FLT3 IC50, FLT3^WT enzyme, 500 μM ATP.

Series [2] can be described thus: Liver microsomal stability. To be noted: dog, liver microsomes, pH 7.4. In general terms: Liver microsomes are vesicles of endoplasmic reticulum, rich in cytochrome P450 enzymes.
Series [3] can be described thus: Liver microsomal stability. To be noted: rat, liver microsomes, pH 7.4.
A short description of series [4]: Liver microsomal stability. The note with it: both, human, liver microsomes, pH 7.4.
A further series concerns FLT3-ITD phosphorylation. Put plainly: Western blot of FLT3 signaling in MOLM13^FLT3-ITD cells. The class given is cell-based. The note with it: 1 h, read-out: FLT3 IC50 estimated from loss of FLT3-ITD phosphorylation.
The subject of a further series is MOLM13^FLT3-ITD cells. Put plainly: MOLM13 cell viability. The class given is cell-based. To be noted: Homo sapiens, MOLM-13, 72 h, read-out: MOLM13^FLT3-ITD IC50.
Series [5] in a line: Liver microsomal stability. The note with it: female, CD-1, mouse, liver microsomes, pH 7.4.
Series [6] is described as follows: Plasma stability. To be noted: human. The class given is in vitro ADME.
The nature of series [7]: Plasma stability. In kind it is in vitro ADME. To be noted: rat.
The nature of series [8]: Plasma stability. In kind it is in vitro ADME. To be noted: mouse.
Another series in a line: Solubility. In kind it is physicochemical. The note with it: buffer, pH 7.4, aqueous buffer, kinetic from dmso stock.
For series [9], the system named is MOLM13^FLT3-ITD/D835Y cells. As to the kind of experiment: MOLM13 cell viability. In kind it is cell-based. The note with it: Homo sapiens, MOLM-13, 72 h, read-out: MOLM13^FLT3-ITD/D835Y IC50.
For another series, the system named is BJ cells. Put plainly: BJ fibroblast proliferation. In kind it is cell-based. To be noted: Homo sapiens, 72 h, read-out: BJ EC50, 72 h.

As for `c1cncc(-c2cccc(Oc3nccc(OC4CCCCC4)n3)c2)c1` [Compound 20, 4-(Cyclohexyloxy)-2-(3-(pyridin-3-yl)phenoxy)pyrimidine], the concentration for a half-maximal effect (EC50) in the series on MV4-11 cells was above 13000 nM. Further, the IC50 in series [1] was found to be 49 nM.

Take `CC(C)Nc1ccnc(Nc2cccc(-c3cnccn3)c2)n1` [Compound 6k, N^4-Isopropyl-N^2-(3-(pyrazin-2-yl)phenyl)pyrimidine-2,4-diamine]: the CLint scaled at 4 µM in series [2] amounted to 37 mL/min/kg; in series [3] it was 122 mL/min/kg; in [4], 14.2 mL/min/kg; in series [5] it was 485 mL/min/kg. The half-life at 4 µM is 54 ± 1.2 min in series [2], 22.8 ± 0.6 min in [3], 87.6 ± 6 min in series [4] and 7.08 ± 0.18 min in series [5]. Also, the IC50 in the series on FLT3-ITD phosphorylation is 50 to 100 nM; in the series with MOLM13^FLT3-ITD cells, 45 nM; in [9] it was 77 nM. For the same compound, the plasma stability in “Plasma stability [6]”, in “Plasma stability [7]” and in the series “Plasma stability [8]” was above 50 h each time. The solubility at 18 h in “Solubility” was 56.9 ± 1.9 µM (≈ 17.4 µg/mL).

As for `CC[C@@H](C)Nc1ccnc(Nc2cccc(-c3cccnc3)c2)n1` [Compound 5k, (R)-N^4-(sec-Butyl)-N^2-(3-(pyridin-3-yl)phenyl)pyrimidine-2,4-diamine], the “fold improvement in MV4-11 growth inhibition relative to 1” value in the series on MV4-11 cells is listed as “approximately 10 fold”.

As for `CC[C@H](C)Nc1ccnc(Nc2cccc(-c3cccnc3)c2)n1` [Compound 5j, (S)-N^4-(sec-Butyl)-N^2-(3-(pyridin-3-yl)phenyl)pyrimidine-2,4-diamine], in the series on MV4-11 cells, the “fold improvement in MV4-11 growth inhibition relative to 1” value is recorded as “approximately 10 fold”.

For the compound `CN(c1cccc(-c2cccnc2)c1)c1nccc(NC2CCCCC2)n1` [Compound 21, N^4-Cyclohexyl-N^2-methyl-N^2-(3-(pyridin-3-yl)phenyl)pyrimidine-2,4-diamine], in the series with MV4-11 cells, the half-maximal effective concentration (EC50) was above 4000 nM. Further, in [1], the IC50 was above 11000 nM.

In the case of `CN(c1ccnc(Nc2cccc(-c3cccnc3)c2)n1)C1CCCCC1` [Compound 16, N^4-Cyclohexyl-N^4-methyl-N^2-(3-(pyridin-3-yl)phenyl)pyrimidine-2,4-diamine], in the series with MV4-11 cells, the EC50 was above 8000 nM. In addition, in series [1], the IC50 was determined as 82 nM.

With `CN(c1cccc(-c2cccnc2)c1)c1nccc(N(C)C2CCCCC2)n1` [Compound 17, N^4-Cyclohexyl-N^2,N^4-dimethyl-N^2-(3-(pyridin-3-yl)phenyl)pyrimidine-2,4-diamine], in the series on MV4-11 cells, the EC50 stood at 39 nM. Besides, in [1], the IC50 is above 15000 nM.

Consider `c1cncc(-c2cccc(Nc3nccc(NC4CCNCC4)n3)c2)c1` [Compound 5q, N^4-(Piperidin-4-yl)-N^2-(3-(pyridin-3-yl)phenyl)pyrimidine-2,4-diamine], for which the “fold more potent than 1 against FLT3” value in series [1] is “approximately 4 fold”.

Regarding `c1cncc(-c2cccc(Oc3nccc(NC4CCCCC4)n3)c2)c1` [Compound 22, N-Cyclohexyl-2-(3-(pyridin-3-yl)phenoxy)pyrimidin-4-amine], in the series with MV4-11 cells, the EC50 was above 14000 nM. In series [1], the “fold reduction of FLT3 enzymatic activity compared to 1” value is recorded as around 40 fold and the IC50 worked out at 1260 nM.

On to `CC(C)(C)c1cc(NC(=O)Nc2ccc(-c3cn4c(n3)sc3cc(OCCN5CCOCC5)ccc34)cc2)no1` [quizartinib, reference compound], for which the EC50 is 0.7 nM in the series on MV4-11 cells and above 22000 nM in the series on BJ cells.

In the case of `c1cncc(-c2cccc(Nc3nccc(OC4CCCCC4)n3)c2)c1` [Compound 19, 4-(Cyclohexyloxy)-N-(3-(pyridin-3-yl)phenyl)pyrimidin-2-amine], the EC50 in the series on MV4-11 cells is above 6000 nM. Also, the IC50 in [1] is 187 nM.

Regarding `c1cncc(-c2cccc(Nc3cc(NC4CCCCC4)ccn3)c2)c1` [Compound 13, N^4-cyclohexyl-N^2-(3-(pyridin-3-yl)phenyl)pyridine-2,4-diamine], the EC50 was above 16000 nM with MV4-11 cells and 10600 nM with BJ cells. In addition, the IC50 in series [1] was found to be 1500 nM.

Consider `c1cncc(-c2cccc(Nc3cccc(NC4CCCCC4)n3)c2)c1` [Compound 9, N^2-Cyclohexyl-N^6-(3-(pyridin-3-yl)phenyl)pyridine-2,6-diamine], for which the EC50 in the series with MV4-11 cells and in the series on BJ cells was above 10000 nM throughout. Further, the IC50 in [1] turned out to be 80 nM.

`CC(C)(C)Nc1ccnc(Nc2cccc(-c3cccnc3)c2)n1` [Compound 5f, N^4-(tert-Butyl)-N^2-(3-(pyridin-3-yl)phenyl)pyrimidine-2,4-diamine]: the “fold improvement in MV4-11 growth inhibition relative to 1” value with MV4-11 cells is reported as “approximately 10 fold”.

Consider `c1cncc(-c2cccc(Nc3ccnc(NC4CCCCC4)c3)c2)c1` [Compound 14, N^2-Cyclohexyl-N^4-(3-(pyridin-3-yl)phenyl)pyridine-2,4-diamine], for which the EC50 was above 8000 nM in the series on MV4-11 cells and 8740 nM with BJ cells. For the same compound, the IC50 in [1] came out at 141 nM.

A word on the EC50: it is the concentration that produces a half-maximal response. As a reminder, the CLint scaled is a measure of how fast metabolising enzymes remove a compound, apart from limits set by blood flow. A low value points to greater metabolic stability. Broadly, the half-life is how long it takes for the measured level to halve. The solubility is how much of the substance goes into solution per volume. A high value points to a readily soluble substance.
